This note sets out measurements from ChEMBL document CHEMBL3046810, “Total synthesis of cis-solamin and its inhibitory action with bovine heart mitochondrial complex I” (Tetrahedron, 2004).

This assay deals with NADH-ubiquinone oxidoreductase chain 1 (Bos taurus, UniProt P03887). The assay can be described thus: Inhibition of Bos taurus (bovine) mitochodrial complex 1 isolated from heart submitochondrial particle by NADH oxidase assay.
NADH-ubiquinone oxidoreductase chain 1, sequence (P03887 whole entry): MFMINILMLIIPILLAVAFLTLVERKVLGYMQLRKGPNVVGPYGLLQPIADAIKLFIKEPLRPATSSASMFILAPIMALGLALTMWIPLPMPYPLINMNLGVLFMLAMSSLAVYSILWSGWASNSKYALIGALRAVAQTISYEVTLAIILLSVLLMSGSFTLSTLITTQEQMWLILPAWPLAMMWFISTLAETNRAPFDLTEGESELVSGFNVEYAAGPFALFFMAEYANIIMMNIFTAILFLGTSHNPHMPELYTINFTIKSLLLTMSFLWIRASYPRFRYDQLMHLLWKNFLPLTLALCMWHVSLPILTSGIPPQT
The term IC50 denotes the midpoint of a concentration-inhibition curve. High values mean weaker potency in that assay, low ones greater potency in that assay. For the compound `CCCCCCCCCCCC[C@H](O)[C@@H]1CC[C@H]([C@H](O)CCCCCCCCCCCCC2=C[C@H](C)OC2=O)O1` (stereo in doubt; 1a) [CIS-SOLAMIN], the IC50 worked out at 2.2 nM.

`CCCCCCCCCCCC[C@H](O)[C@@H]1CC[C@H]([C@H](O)CCCCCCCCCCCCC2=C[C@H](C)OC2=O)O1` (stereo in doubt; 1b) [CIS-SOLAMIN] gave an IC50 of 2.1 nM. Consider `CCCCCCCCCCCC[C@@H](O)[C@H]1CC[C@H]([C@H](O)CCCC[C@@H](O)CCCCCCCC2=C[C@H](C)OC2=O)O1` [(10S)-COROSSOLINE], for which the IC50 turned out to be 2 nM. In the case of `CCCCCCCCCCCC[C@H](O)[C@H]1CC[C@H]([C@H](O)CCCCCCCCCCCCCCC2=C[C@H](C)OC2=O)O1` [(17R,18R,21R,22S)-reticulation-1] it was 16 nM. In the case of `CCCCCCCCCCCC[C@@H](O)[C@H]1CC[C@H]([C@@H](O)CCCCCCCCCCCCCCC2=C[C@H](C)OC2=O)O1` [(17S, 18S, 21S, 22R)-reticulation-1], inhibition was half-maximal at 17 nM (IC50). The same measure for `CCCCCCCCCC[C@H](O)[C@H]1CC[C@H]([C@H]2CC[C@H]([C@H](O)CCCCCCCCCC[C@@H](O)CC3=C[C@H](C)OC3=O)O2)O1` [BULLATACIN]: 0.8 nM.

Compound `CCCCCCCCCCCC[C@@H](O)[C@H]1CC[C@H]([C@H](O)CCCC[C@H](O)CCCCCCCC2=C[C@H](C)OC2=O)O1` [COROSSOLINE] had a concentration for half-maximal inhibition (IC50) of 1.5 nM.
